Reference: article PMC8776995 (Frontiers in Chemistry, 2022)
Values joined by “and” are separate entries in the source; they are usually repeats but may differ in a detail not shown here. Equal entries are not always repeated.

What was measured:
wild-type EGFR = wild-type EGFR (Homo sapiens, UniProt P00533); test: EGFR kinase assay (ELISA); details: for IC50: IC50 (μM) EGFR, ELISA, 3 μmol/L ATP; for A450: raw ELISA absorbance
H460 cells = test: CCK-8 antiproliferation assay, H460; details: for Inhibitory efficacy: H460 cells; for IC50: NCI-H460, 48 h, read-out: IC50 (μM) H460, CCK-8, 48 h, average ± SD of three independent experiments
Protocol: The compounds were dissolved in DMSO to make a 20 μM stock solution and diluted to the concentration of working solutions with complete growth medium before administration.
Cells were seeded in 96-well plates: 3,000–5,000 cells/well in 100 ul. One day after seeding, the test compounds at concentration between 1.0 and 16.0 μ M or 0.1% DMSO (as control) were added to cells in triplicate. 48 h later, CCK-8 was added and incubated the plate for 1–4 h in the incubator. The absorbance at 450 nm were measured using a microplate reader (Bio-Tek).

A549 cells = test: CCK-8 antiproliferation assay, A549; details: for Inhibitory efficacy: A549 cells; for IC50: A549, 48 h, read-out: IC50 (μM) A549, CCK-8, 48 h, average ± SD of three independent experiments
PC-9 cells = test: CCK-8 antiproliferation assay, PC-9; details: for IC50: PC-9, 48 h, read-out: IC50 (μM) PC-9; for Inhibitory efficacy: single repeats (Repeat 1-3), given as fraction
H1975 cells = test: CCK-8 antiproliferation assay, H1975; details: for Inhibitory efficacy: H1975 cells; for Inhibitory efficacy / inhibition at 1 µM / inhibition at 2 µM / inhibition at 4 µM / inhibition at 8 µM / inhibition at 16 µM: given as fraction, Repeat 1-3; for IC50 / inhibition at 1 µM / inhibition at 2 µM / inhibition at 4 µM / inhibition at 8 µM / inhibition at 16 µM: Homo sapiens; for IC50: NCI-H1975, 48 h, read-out: IC50 (μM) H1975, CCK-8, 48 h, average ± SD of three independent experiments; for inhibition at 1 µM / inhibition at 2 µM / inhibition at 4 µM / inhibition at 8 µM / inhibition at 16 µM: NCI-H1975, read-out: Inhibitory efficacy, H1975 cells
[1] = concentration 0.03 nM, one value per replicate column, 3e-05 µM
[2] = concentration 0.3 nM, one value per replicate column, 0.0003 µM
[3] = concentration 3 nM, one value per replicate column, 0.003 µM
[4] = concentration 30 nM, one value per replicate column, 0.03 µM
[5] = concentration 300 nM, one value per replicate column, 0.3 µM
[6] = concentration 3000 nM, one value per replicate column
[7] = concentration 3000 nM, one value per replicate column, 3 µM
[8] = 4uM, given as fraction, Repeat 1-3
[9] = 8uM, given as fraction, Repeat 1-3
[10] = 16uM, given as fraction, Repeat 1-3
[11] = Homo sapiens, NCI-H460, read-out: Inhibitory efficacy, H460 cells, 8uM, given as fraction, Repeat 1-3
[12] = Homo sapiens, NCI-H460, read-out: Inhibitory efficacy, H460 cells, 16uM, given as fraction, Repeat 1-3
[13] = 1uM, given as fraction, Repeat 1-3
[14] = 2uM, given as fraction, Repeat 1-3
[15] = Homo sapiens, A549, read-out: Inhibitory efficacy, A549 cells, 1uM, given as fraction, Repeat 1-3
[16] = Homo sapiens, A549, read-out: Inhibitory efficacy, A549 cells, 4uM, given as fraction, Repeat 1-3
[17] = Homo sapiens, A549, read-out: Inhibitory efficacy, A549 cells, 16uM, given as fraction, Repeat 1-3

Chain of wild-type EGFR (P00533 25-1210): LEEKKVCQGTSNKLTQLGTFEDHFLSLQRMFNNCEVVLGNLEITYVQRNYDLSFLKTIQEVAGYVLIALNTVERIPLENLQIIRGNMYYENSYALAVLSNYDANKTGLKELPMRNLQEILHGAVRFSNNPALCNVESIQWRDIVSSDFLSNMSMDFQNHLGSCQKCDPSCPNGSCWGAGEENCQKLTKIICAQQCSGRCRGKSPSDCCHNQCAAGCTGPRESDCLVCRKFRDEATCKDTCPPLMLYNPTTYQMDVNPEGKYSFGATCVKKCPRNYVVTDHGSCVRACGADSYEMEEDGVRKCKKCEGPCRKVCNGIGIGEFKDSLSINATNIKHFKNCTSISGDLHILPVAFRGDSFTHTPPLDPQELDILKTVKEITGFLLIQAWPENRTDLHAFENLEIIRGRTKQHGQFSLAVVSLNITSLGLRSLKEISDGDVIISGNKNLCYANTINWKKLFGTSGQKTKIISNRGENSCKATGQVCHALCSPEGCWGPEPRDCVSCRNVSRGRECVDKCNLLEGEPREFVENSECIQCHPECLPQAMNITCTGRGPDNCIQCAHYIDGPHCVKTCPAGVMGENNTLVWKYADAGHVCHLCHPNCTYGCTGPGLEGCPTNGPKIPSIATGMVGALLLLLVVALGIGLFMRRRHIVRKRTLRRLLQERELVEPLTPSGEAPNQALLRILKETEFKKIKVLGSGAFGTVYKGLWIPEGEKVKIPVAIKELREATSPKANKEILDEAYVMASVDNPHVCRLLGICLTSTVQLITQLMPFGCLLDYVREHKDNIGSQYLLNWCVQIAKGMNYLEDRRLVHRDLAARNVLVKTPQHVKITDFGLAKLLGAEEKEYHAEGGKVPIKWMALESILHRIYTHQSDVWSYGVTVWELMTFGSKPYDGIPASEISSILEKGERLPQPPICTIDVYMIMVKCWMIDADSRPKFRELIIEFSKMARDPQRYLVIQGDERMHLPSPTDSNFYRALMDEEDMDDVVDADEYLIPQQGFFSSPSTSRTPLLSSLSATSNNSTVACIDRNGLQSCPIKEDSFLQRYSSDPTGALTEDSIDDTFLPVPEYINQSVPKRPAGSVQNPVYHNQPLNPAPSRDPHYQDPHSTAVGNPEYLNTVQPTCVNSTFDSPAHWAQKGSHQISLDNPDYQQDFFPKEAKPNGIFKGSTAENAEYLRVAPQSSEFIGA

## COCCOc1cc2ncnc(Nc3cccc(-c4cn(-c5cccc([N+](=O)[O-])c5)nn4)c3)c2cc1OCCOC [e13, [6,7-Bis-(2-methoxy-ethoxy)-quinazolin-4-yl]-{3-[1-(3-nitro-phenyl)-1H-[1,2,3]triazol-4-yl]-phenyl}-amine]
other
  melting point: 98 to 101 °C
wild-type EGFR
  IC50: 4.74 µM
wild-type EGFR; concentration 0.0001 nM (reference for normalisation), one value per replicate column
  inhibition at 100 fM: 0%
wild-type EGFR; [1]
  Inhibition: 3.252
wild-type EGFR; [2]
  Inhibition: 1.084 and 9.485
wild-type EGFR; [3]
  Inhibition: 4.065 and 14.0921
wild-type EGFR; [4]
  Inhibition: 5.691 and 21.1382
wild-type EGFR; [5]
  Inhibition: 10.0271 and 28.9973
wild-type EGFR; [6]
  inhibition at 3 µM: 30.9%
wild-type EGFR; [7]
  Inhibition: 29.5393
wild-type EGFR; concentration 0.0001 nM
  A450: 0.702 and 0.668
wild-type EGFR; concentration 0.03 nM
  A450: 0.702 and 0.656
wild-type EGFR; concentration 0.3 nM
  A450: 0.698 and 0.633
wild-type EGFR; concentration 3 nM
  A450: 0.687 and 0.616
wild-type EGFR; concentration 30 nM
  A450: 0.681 and 0.59
wild-type EGFR; concentration 300 nM
  A450: 0.665 and 0.561
wild-type EGFR; concentration 3000 nM
  A450: 0.588 and 0.559
wild-type EGFR; concentration 30000 nM
  A450: 0.333 and 0.299
H460 cells; [8]
  Inhibitory efficacy: 0.3261 and 0.3299
H460 cells; [9]
  Inhibitory efficacy: 0.4209 and 0.401
H460 cells; [10]
  Inhibitory efficacy: 0.4769 and 0.494
H460 cells; Homo sapiens
  IC50: 11.9 ± 3.63 µM
H460 cells; Homo sapiens, NCI-H460, read-out: Inhibitory efficacy, H460 cells, 4uM, given as fraction, Repeat 1-3
  inhibition at 4 µM: 42.4%
H460 cells; [11]
  inhibition at 8 µM: 54.8%
H460 cells; [12]
  inhibition at 16 µM: 56.2%
A549 cells; [13]
  Inhibitory efficacy: 0.1588 and 0.1553
A549 cells; [14]
  Inhibitory efficacy: 0.352 and 0.366
A549 cells; [8]
  Inhibitory efficacy: 0.5268 and 0.5198
A549 cells; [9]
  Inhibitory efficacy: 0.5749 and 0.6133
A549 cells; [10]
  Inhibitory efficacy: 0.6238 and 0.6256
A549 cells; Homo sapiens
  IC50: 5.95 ± 1.47 µM
A549 cells; [15]
  inhibition at 1 µM: 8.71%
A549 cells; Homo sapiens, A549, read-out: Inhibitory efficacy, A549 cells, 2uM, given as fraction, Repeat 1-3
  inhibition at 2 µM: 36.9%
A549 cells; [16]
  inhibition at 4 µM: 44.6%
A549 cells; Homo sapiens, A549, read-out: Inhibitory efficacy, A549 cells, 8uM, given as fraction, Repeat 1-3
  inhibition at 8 µM: 51.1%
A549 cells; [17]
  inhibition at 16 µM: 56.8%
PC-9 cells; Homo sapiens
  IC50: 22.6 ± 1.16 µM
PC-9 cells; Homo sapiens, PC-9, read-out: Inhibitory efficacy, PC-9, 8uM, single repeats (Repeat 1-3), given as fraction
  inhibition at 8 µM: 12.1%
PC-9 cells; Homo sapiens, PC-9, read-out: Inhibitory efficacy, PC-9, 16uM, single repeats (Repeat 1-3), given as fraction
  inhibition at 16 µM: 28.6%
PC-9 cells; PC-9, 8uM, 8 µM
  Inhibitory efficacy: 0.1077 and 0.1459
PC-9 cells; PC-9, 16uM, 16 µM
  Inhibitory efficacy: 0.2884 and 0.3336
H1975 cells; 1uM
  Inhibitory efficacy: 0.09975 and 0.197
  inhibition at 1 µM: 14.3%
H1975 cells; 2uM
  Inhibitory efficacy: 0.1652 and 0.1521
  inhibition at 2 µM: 25.5%
H1975 cells; 4uM
  Inhibitory efficacy: 0.1521 and 0.1128
  inhibition at 4 µM: 15%
H1975 cells; 8uM
  Inhibitory efficacy: 0.1633 and 0.2344
  inhibition at 8 µM: 24.2%
H1975 cells; 16uM
  Inhibitory efficacy: 0.1933 and 0.2774
  inhibition at 16 µM: 21%
H1975 cells
  IC50: > 100 µM

## CCOc1cccc(-n2cc(-c3cccc(Nc4ncnc5cc(OCCOC)c(OCCOC)cc45)c3)nn2)c1 [e14, [6,7-Bis-(2-methoxy-ethoxy)-quinazolin-4-yl]-{3-[1-(3-ethoxy-phenyl)-1H-[1,2,3]triazol-4-yl]-phenyl}-amine]
other
  melting point: 110 to 114 °C
wild-type EGFR
  IC50: 10.7 µM
wild-type EGFR; concentration 0.03 nM, one value per replicate column
  inhibition at 30 pM: 3.1%
wild-type EGFR; [1]
  Inhibition: 4.587
wild-type EGFR; concentration 0.3 nM, one value per replicate column
  inhibition at 0.0003 µM: 5.16%
wild-type EGFR; [2]
  Inhibition: 5.242
wild-type EGFR; concentration 3 nM, one value per replicate column
  inhibition at 0.003 µM: 5.55%
wild-type EGFR; [3]
  Inhibition: 6.684
wild-type EGFR; concentration 30 nM, one value per replicate column
  inhibition at 0.03 µM: 10.7%
wild-type EGFR; [4]
  Inhibition: 8.781
wild-type EGFR; concentration 300 nM, one value per replicate column
  inhibition at 0.3 µM: 11.4%
wild-type EGFR; [5]
  Inhibition: 9.699
wild-type EGFR; [6]
  inhibition at 3 µM: 22.2%
wild-type EGFR; [7]
  Inhibition: 18.3486
wild-type EGFR; concentration 30000 nM, one value per replicate column
  inhibition at 30 µM: 74.1%
wild-type EGFR; concentration 30000 nM, one value per replicate column, 30 µM
  Inhibition: 73.6566
wild-type EGFR; concentration 0.0001 nM
  A450: 1.058 and 1.062
wild-type EGFR; concentration 0.03 nM
  A450: 1.034 and 1.027
wild-type EGFR; concentration 0.3 nM
  A450: 1.018 and 1.022
wild-type EGFR; concentration 3 nM
  A450: 1.015 and 1.011
wild-type EGFR; concentration 30 nM
  A450: 0.975 and 0.995
wild-type EGFR; concentration 300 nM
  A450: 0.97 and 0.988
wild-type EGFR; concentration 3000 nM
  A450: 0.886 and 0.922
wild-type EGFR; concentration 30000 nM
  A450: 0.484 and 0.5
H460 cells; [14]
  Inhibitory efficacy: 0.09418 and 0.1351
H460 cells; [9]
  Inhibitory efficacy: 0.192 and 0.3038
H460 cells; [10]
  Inhibitory efficacy: 0.3527 and 0.3328
H460 cells; Homo sapiens
  IC50: 34.1 ± 2.5 µM
H460 cells; Homo sapiens, NCI-H460, read-out: Inhibitory efficacy, H460 cells, 2uM, given as fraction, Repeat 1-3
  inhibition at 2 µM: 8.02%
H460 cells; [11]
  inhibition at 8 µM: 25.9%
H460 cells; [12]
  inhibition at 16 µM: 30.4%
A549 cells; [13]
  Inhibitory efficacy: 0.06697 and 0.1106
A549 cells; [8]
  Inhibitory efficacy: 0.2585 and 0.1473
A549 cells; [10]
  Inhibitory efficacy: 0.1909 and 0.2764
A549 cells; Homo sapiens
  IC50: > 100 µM
A549 cells; [15]
  inhibition at 1 µM: 8.24%
A549 cells; [16]
  inhibition at 4 µM: 25.4%
A549 cells; [17]
  inhibition at 16 µM: 26.4%
PC-9 cells; Homo sapiens
  IC50: > 100 µM
H1975 cells; 1uM
  Inhibitory efficacy: 0.1721 and 0.1925
  inhibition at 1 µM: 20.6%
H1975 cells; 2uM
  Inhibitory efficacy: 0.2391 and 0.2224
  inhibition at 2 µM: 28.4%
H1975 cells; 4uM
  Inhibitory efficacy: 0.4814 and 0.4311
  inhibition at 4 µM: 34%
H1975 cells; 8uM
  Inhibitory efficacy: 0.5466 and 0.5764
  inhibition at 8 µM: 58.6%
H1975 cells; 16uM
  Inhibitory efficacy: 0.5969 and 0.5615
  inhibition at 16 µM: 57.3%
H1975 cells
  IC50: 7.5 ± 0.49 µM
